This note sets out measurements from publication doi:10.1101/525105v1 (biorxiv, 2019).

For series [1], the target named is HIV-1 RT (Roche colorimetric reverse transcriptase assay kit) (HIV-1 M:B_HXB2R, UniProt P04585). As to the kind of experiment: colorimetric RT polymerase assay. In kind it is biochemical.
The next series concerns the target AMV RNase H. As to the kind of experiment: RNase H assay. Format: biochemical, Avian myeloblastosis virus. The following applies: conditions not printed for this enzyme.
For a further series, the target named is T1, E. coli RNase H (Escherichia coli, UniProt P0A7Y4).
T1 sequence (P0A7Y4 1-155): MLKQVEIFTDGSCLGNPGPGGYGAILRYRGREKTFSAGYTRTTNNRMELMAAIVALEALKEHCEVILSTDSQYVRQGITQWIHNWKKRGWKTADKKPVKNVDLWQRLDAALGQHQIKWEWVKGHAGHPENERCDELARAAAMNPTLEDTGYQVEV
As to the kind of experiment: RNase H assay. Format: biochemical.

The nature of series [2]: in vitro. Particulars: human, tzm-bl cells.
Another series relates to HIV-1IIIB. As to the kind of experiment: microbe, parasite or virus in culture. Further details: species or system LC5-RIC. Particulars: Human immunodeficiency virus 1, 48 h, read-out: IC50 HIV-1IIIB.
Series [3] is described as follows: in vitro. The following applies: human, lc5-ric cells.
Series [4] has as its target HIV-1 integrase (XpressBio kit) (HIV-1 M:B_HXB2R, UniProt P04585). Briefly: HIV-1 integrase assay kit. Format: biochemical.

Structures are written as SMILES.

By IC50 is commonly meant the concentration that inhibits the measured activity by half. As to `Cc1cc(/C=C/C#N)cc(C)c1Nc1ccnc(Nc2ccc(C#N)cc2)n1` [rilpivirine, reference compound], the results for the IC50 (in series [1]; against AMV RNase H; at E. coli RNase H) were about 0.001 µM, over 10 µM and over 10 µM, respectively.

The CC50 is the concentration that lowers cell viability or growth by half. A low value points to harm at low concentration. Consider `CC(C)Oc1ccc2ccccc2c1-c1cccc2cccnc12` [B#59, 2-(Isopropyloxy)-1-(quinol-8-yl)naphthalene], for which the cytotoxic concentration (CC50) in the series “in vitro [2]” was over 100 µM. For the same molecule, the IC50 with HIV-1IIIB worked out at 39.5 ± 1.7 µM. In the series “in vitro [3]”, the CC50 at 48 h came out at 144 ± 7.7 µM.

In the case of `CC(C)Oc1ccc2cccnc2c1-c1cccc2cccnc12` [B#57, 7-(Isopropyloxy)-8,8′-biquinolyl], the IC50 was over 100 µM in series [1]; over 100 µM against AMV RNase H; over 200 µM in the series with HIV-1IIIB; over 100 µM against E. coli RNase H; over 100 µM in series [4]. This molecule also registered a CC50 in the series “in vitro [2]” of over 200 µM. In the series “in vitro [3]”, this molecule had a CC50 at 48 h of over 200 µM.

Consider `CCN(CC)OC(=O)c1ccc2ccccc2c1-c1cccc2cccnc12` [B#60, 2-[(Diethylamino)oxycarbonyl]-1-(quinol-8-yl)naphthalene], for which, in “in vitro [2]”, the half-maximal cytotoxic concentration (CC50) is 69.3 ± 4.9 µM. Besides, the IC50 with HIV-1IIIB stood at 50.1 ± 3.7 µM. In “in vitro [3]”, half-maximal cytotoxicity (CC50 at 48 h) was put at 71.4 ± 2.8 µM.

Regarding `CCN(CC)C(=O)Oc1ccc2cccnc2c1-c1cccc2cccnc12` [B#58, 7-[(Diethylamino)carbonyloxy]-8,8'-biquinolyl], the CC50 in the series “in vitro [2]” was over 200 µM. Also, in the series on HIV-1IIIB, the IC50 was over 200 µM.

As to `CC(C)Oc1ccc2cccnc2c1-c1cccc2ccccc12` [B#24, 7-(Isopropyloxy)-8-(naphth-1-yl)quinoline], the half-inhibitory concentration (IC50) was over 100 µM in series [1]; over 100 µM against AMV RNase H; 7.6 ± 0.2 µM with HIV-1IIIB; 44.3 ± 6.4 µM against E. coli RNase H; over 100 µM in series [4]. The molecule also showed a half-maximal cytotoxic concentration (CC50) in “in vitro [2]” of 68.5 ± 17.1 µM. Further, in the series “in vitro [3]”, half-maximal cytotoxicity (CC50 at 48 h) was put at 86.5 ± 3.7 µM.
